Columns and labels:
Assay type in all cases: biochemical
Collagenase = biological target: T1, Collagenase (Homo sapiens, UniProt P03956); assay: MMP inhibition by particle concentration fluorescence technique (collagenase); settings: pH 7.5; 15 min enzyme preincubation; substrate 1-3 h at room temperature; read-out: MMP Inhibition Constants, Collagenase Ki
T1 sequence (P03956 100-469): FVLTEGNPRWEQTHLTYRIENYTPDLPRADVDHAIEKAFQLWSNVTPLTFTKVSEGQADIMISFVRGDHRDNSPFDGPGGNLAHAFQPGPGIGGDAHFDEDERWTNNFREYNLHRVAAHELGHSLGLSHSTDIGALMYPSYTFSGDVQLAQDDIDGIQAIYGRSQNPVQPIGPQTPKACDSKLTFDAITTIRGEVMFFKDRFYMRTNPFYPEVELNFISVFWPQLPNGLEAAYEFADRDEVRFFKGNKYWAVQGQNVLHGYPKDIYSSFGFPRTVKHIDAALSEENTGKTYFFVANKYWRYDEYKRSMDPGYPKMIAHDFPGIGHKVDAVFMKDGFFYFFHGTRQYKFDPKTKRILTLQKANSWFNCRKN
Protocol: (§1) Inhibitory activity is evaluated in one or more of the MMP enzymes (stromelysin, gelatinase, and collagenase) in vitro using a particle concentration fluorescence techniques. An inhibitor binds to MMP enzymes prevents the degradation of a substrate of stromelysin, gelatinase, or collagenase. The substrate is attached with a fluorescein and a biotin. The intact substrate then binds to an avidin-coated particle via the biotin moiety. Once the particle is washed and dried, a fluorescent signal is generated since the fluorescent group is attached to the particle. Without an inhibitor present, the substrate is degraded by MMP enzymes and the fluorescein group is removed, therefore, no fluorescent signal can be detected. Testing compounds are dissolved in DMSO to the desired concentration, then the solutions are diluted to 1:5 with MMP buffer (50 mM Tris-HCl, pH 7.5; 150 mM NaCl; 0.02% NAN3). Serial two-fold dilutions of each compound are prepared. A concentrated, activated enzyme solution is transferred into each plate of the testing compounds, and the mixture is incubated at room temperature for 15 minutes. Thawed MMP substrate is then added into all plates, and the plates are incubate in the dark for 1-3 hours at room temperature. At this point, the substrate mixture is reacted with 0.1% avidin-coated polystyrene particles.

Gelatinase = assay: MMP inhibition by particle concentration fluorescence technique (gelatinase); settings: pH 7.5; 15 min enzyme preincubation; substrate 1-3 h at room temperature; read-out: MMP Inhibition Constants, Gelatinase Ki
Protocol: as §1

Stromelysin = Stromelysin (Homo sapiens, UniProt P08254); assay: MMP inhibition by particle concentration fluorescence technique (stromelysin); settings: pH 7.5; 15 min enzyme preincubation; substrate 1-3 h at room temperature; read-out: MMP Inhibition Constants, Stromelysin Ki
Sequence of Stromelysin (P08254 100-477): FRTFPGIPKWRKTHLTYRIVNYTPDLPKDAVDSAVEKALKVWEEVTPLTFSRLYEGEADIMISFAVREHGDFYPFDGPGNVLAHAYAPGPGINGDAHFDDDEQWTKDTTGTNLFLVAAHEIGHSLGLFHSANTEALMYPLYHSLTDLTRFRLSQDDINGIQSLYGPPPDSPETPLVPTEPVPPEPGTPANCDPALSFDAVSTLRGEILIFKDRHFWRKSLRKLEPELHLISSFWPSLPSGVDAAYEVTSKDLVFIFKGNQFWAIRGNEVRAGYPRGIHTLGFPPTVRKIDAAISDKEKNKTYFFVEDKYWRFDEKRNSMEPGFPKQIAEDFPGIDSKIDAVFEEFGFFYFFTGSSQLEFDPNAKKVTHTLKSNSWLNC
From the text: An inhibitor binds to MMP enzymes prevents the degradation of a substrate of stromelysin, gelatinase, or collagenase. The substrate is attached with a fluorescein and a biotin. The intact substrate then binds to an avidin-coated particle via the biotin moiety. Once the particle is washed and dried, a fluorescent signal is generated since the fluorescent group is attached to the particle. Without an inhibitor present, the substrate is degraded by MMP enzymes and the fluorescein group is removed, therefore, no fluorescent signal can be detected. […] Serial two-fold dilutions of each compound are prepared. A concentrated, activated enzyme solution is transferred into each plate of the testing compounds, and the mixture is incubated at room temperature for 15 minutes.

Structure (SMILES) | Ki (Collagenase) [nM] | Ki (Gelatinase) [nM] | Ki (Stromelysin) [nM]
CNC(=O)CN1CCC(CC(=O)NO)(CC(C)C)C1=O (stereo not drawn) [Example 20, N^3 -Hydroxy-N^1-methyl-3-(2-methylpropyl)-2-oxo-1,3-pyrrolidinediacetamide] | 579 | 3100 | 16600
CC(C)C[C@@]1([C@@H](CCN2C(=O)c3ccccc3C2=O)C(=O)NO)CCN(CCc2ccc(F)cc2)C1=O (relative stereo) [Example 68, 1-[2-(4-Fluorophenyl)ethyl]-α-[2-(1,3-dihydro-1,3-dioxo-2H-isoindol-2-yl)ethyl]-N-hydroxy-3-(2-methylpropyl)-2-oxo-3-pyrrolidineacetamide] | 1460 | 160 | 350
CC(C)C[C@@]1(CC(=O)NO)CCN([C@@H](Cc2ccccc2)C(=O)Nc2ccncc2)C1=O [Example 41, [S-(R*,R*)]-N^3 -Hydroxy-3-(2-methylpropyl)-2-oxo-α^1-(phenylmethyl)-N^1-(4-pyridinyl)-1,3-pyrrolidinediacetamide] | 2.8 | 2.3 | 14
CC(C)C[C@@]1([C@@H](CCN2C(=O)c3ccc(F)cc3C2=O)C(=O)NO)CCN(CCc2ccccc2)C1=O [Example 63, [R-(R*,S*)]-5-Fluoro-1,3-dihydro-N-hydroxy-α-[3-(2-methylpropyl)-2-oxo-1-(2-phenylethyl)-3-pyrrolidinyl]-1,3-dioxo-2H-isoindole-2-butanamide] | 1500 | 32 | 58
CC(C)C[C@@]1([C@@H](CCNC(=O)c2cccc([N+](=O)[O-])c2)C(=O)NO)CCN(CCc2ccccc2)C1=O (relative stereo) [Example 76, N-Hydroxy-3-(2-methylpropyl)-α-[2-[(3-nitrobenzoyl)amino]ethyl]-2-oxo-1-(2-phenylethyl)-3-pyrrolidineacetamide] | 298 | 3300 | 10800
CC(C)C[C@@]1([C@@H](CCNS(=O)(=O)c2ccccc2)C(=O)NO)CCN(CCc2ccccc2)C1=O (relative stereo) [Example 83, N-Hydroxy-3-(2-methylpropyl)-2-oxo-1-(2-phenylethyl)-α-[2-[(phenylsulfonyl)amino]ethyl]-3-pyrrolidineacetamide] | 17000 | 580 | 107
CC(C)C[C@@]1(CC(=O)NO)CCN([C@@H](Cc2ccccc2)C(=O)Nc2ccc(F)cc2)C1=O [Example 42, [S-(R*,R*)]-N^1-(4-Fluorophenyl)-N^3-hydroxy-3-(2-methylpropyl)-2-oxo-α^1-(phenylmethyl)-1,3-pyrrolidinediacetamide] | 2.44 | 5.4 | 25.5
CC(C)C[C@@]1(CC(=O)NO)CCN([C@@H](Cc2ccccc2)C(=O)NC2CCNCC2)C1=O [Example 44, [S-(R*,R*)]-N^3 -Hydroxy-3-(2-methylpropyl)-2-oxo-α^1-(phenylmethyl)-N^1-(4-piperdinyl)-1,3-pyrrolidinediacetamide] | 20.2 | 11 | 4000
CC(C)C[C@@]1([C@H](NS(=O)(=O)c2ccc(F)cc2)C(=O)NO)CCN(CCc2ccccc2)C1=O (relative stereo) [Example 93, α-[[(4-Fluorophenyl)sulfonyl]amino]-N-hydroxy-3-(2-methylpropyl)-2-oxo-1-(2-phenylethyl)-3-pyrrolidineacetamide] | 98 | 1100 | 2080
CC(C)C[C@@]1(CC(=O)NO)CCN([C@H](C(=O)Nc2ccc(F)cc2)C2CCCCC2)C1=O [Example 60, [S-(R*,R*)]-α^1 -Cyclohexyl-N^1-(4-fluorophenyl)-N^3-hydroxy-3-(2-methylpropyl)-2-oxo-1,3-pyrrolidinediacetamide] | 18 | 12.3 | 19

Continued, values first:

Ki (Collagenase) [nM] | Ki (Gelatinase) [nM] | Ki (Stromelysin) [nM] | Structure (SMILES)
339 | 1.77 | 38 | CC(C)C[C@@]1([C@@H](CCNC(=O)c2ccc(-c3ccccc3)cc2)C(=O)NO)CCN(CCc2ccccc2)C1=O (relative stereo) [Example 79, α-[2-[(4-Biphenylcarbonyl)amino]ethyl]-N-hydroxy-3-(2-methylpropyl)-2-oxo-1-(2-phenylethyl)-3-pyrrolidineacetamide]
12 | 9.5 | 75 | CC(C)C[C@@]1(CC(=O)NO)CCN([C@@H](Cc2ccccc2)C(=O)Nc2ccccn2)C1=O [Example 57, [S-(R*,R*)]-N^3 -Hydroxy-3-(2-methylpropyl)-2-oxo-α^1-(phenylmethyl)-N^1-2-pyridinyl-1,3-pyrrolidinediacetamide]
6.06 | 17 | 283 | CNC(=O)[C@H](C1CCCCC1)N1CC[C@](CC(=O)NO)(CC(C)C)C1=O [Example 50, [S-(R*,R*)]-α^1 -Cyclohexyl-N^3-hydroxy-N^1-methyl-3-(2-methylpropyl)-2-oxo-1,3-pyrrolidinediacetamide]
18 | 278 | 696 | CC(C)C[C@@]1([C@@H](CCNC(=O)c2cccc(F)c2)C(=O)NO)CCN(CCc2ccc(F)cc2)C1=O (relative stereo) [Example 78, α-[2-[(3-Fluorobenzoyl)amino]ethyl]-1-[2-(4-fluorophenyl)ethyl]-N-hydroxy-3-(2-methylpropyl)-2-oxo-3-pyrrolidineacetamide]
26 | 21 | 52 | CC(C)C[C@@]1([C@@H](CCNC(=O)c2cccc(F)c2)C(=O)NO)CCN(CCc2ccccc2)C1=O [Example 74, [R-(R*,S*)-α-[2-[(3-Fluorobenzoyl)amino]ethyl]-N-hydroxy-3-(2-methylpropyl)-2-oxo-1-(2-phenylethyl)-3-pyrrolidineacetamide]
533 | 97 | 46 | CC(C)C[C@@]1([C@@H](CCN2C(=O)c3ccc(F)cc3C2=O)C(=O)NO)CCN(CCc2ccccc2)C1=O (relative stereo) [Example 14, α-[2-(5-Fluoro-1,3-dihydro-1,3-dioxo-2H-isoindol-2-yl)ethyl]-N-hydroxy-3-(2-methylpropyl)-2-oxo-1-(2-phenylethyl)-3-pyrrolidineacetamide]
14200 | 2870 | 92.4 | CC(C)C[C@@]1([C@@H](CN2C(=O)c3ccccc3C2=O)C(=O)NO)CCN(CCc2ccccc2)C1=O (relative stereo) [Example 16, α-[2-(1,3-Dihydro-1,3-dioxo-2H-isoindol-2-yl)methyl]-N-hydroxy-3-(2-methylpropyl)-2-oxo-1-(2-phenylethyl)-3-pyrrolidineacetamide]
36 | 50 | 730 | CNC(=O)[C@H](CC(C)C)N1CC[C@](CC(=O)NO)(CC(C)C)C1=O [Example 32, [S-(R*,R*)]-N^3 -Hydroxy-N^1-methyl-α^1,3-bis(2-methylpropyl)-2-oxo-1,3-pyrrolidinediacetamide]
484 | 981 | 570 | CNC(=O)[C@H](Cc1ccccc1)N1CC[C@@](CC(C)C)([C@@H](CCN2C(=O)c3ccccc3C2=O)C(=O)NO)C1=O (relative stereo) [Example 29, [R,R-(R*,R*)]-α^3-[2-(1,3-Dihydro-1,3-dioxo-2H-isoindol-2-yl)ethyl]-N^3-hydroxy-N^1-methyl-3-(2-methylpropyl)-2-oxo-α^1-(phenylmethyl)-1,3-pyrrolidinediacetamide]
735 | 49 | 107 | CC(C)CC1(C(CCN2C(=O)c3cc(F)c(F)cc3C2=O)C(=O)NO)CCN(CCc2ccccc2)C1=O (stereo not drawn) [Example 64, α-[2-(5,6-Difluoro-1,3-dihydro-1,3-dioxo-2H-isoindol-2-yl)ethyl]-N-hydroxy-3-(2-methylpropyl)-2-oxo-1-(2-phenylethyl)-3-pyrrolidineacetamide]
12.7 | 0.98 | 8.7 | O=C(NCC[C@@H](C(=O)NO)[C@]1(CCCO)CCN(CCc2ccccc2)C1=O)c1cccc(F)c1 [Example 96, [R-(R*,S*)]-α-[2-[(3-Fluorebenzoyl)amino]ethyl]-N-hydroxy-3-(3-hydroxypropyl)-2-oxo-1-(2-phenylethyl)-3-pyrrolidineacetamide]

Source: patent US5712300A, “Hydroxamic acid derivatives useful for the treatment of diseases related to connective tissue degradation” (priority 1997, dated 1998)
